Assays:
Jurkat cells = assay: Cellular viability assay, Jurkat lymphocytes, 48 h, flow cytometry (Example 2); format: cell-based
Procedure: The impact of membrane transporters on the toxicity profile of 49 was also studied.
Jurkat lymphocytes were seeded into a 96-well plate in fresh complete medium at 2.5×10^5 cells/mL and 200 μL per well. All compounds were serial diluted in DMSO and added to complete media to achieve a 1:1000 dilution factor (0.10% DMSO in each well). […] The total cell-count for each well was determined by flow cytometry and staining with propidium iodide was used to identify populations of live cells (only dead cells are stained by PI). Counts of viable cells for each treatment, determined in triplicate, were used to generate dose-response curves. These curves were fitted with non-linear regression using an inhibitor vs. response variable slope […] model (GraphPad Prism 9) to determine IC50 values.

mouse PKCβI-mVenus = biological target: T1, mouse PKCβI-mVenus (Mus musculus, UniProt P68404); assay: Apparent cellular Kd by flow cytometry, HEK293 cells overexpressing PKCβI-mVenus (Example 2); format: binding
T1 construct: eight plasmids encoding full length mouse PKC isozymes fused to; expressed in transfected cells; host or cells: HEK293
T1 sequence (P68404 whole entry, the tested form may be a part): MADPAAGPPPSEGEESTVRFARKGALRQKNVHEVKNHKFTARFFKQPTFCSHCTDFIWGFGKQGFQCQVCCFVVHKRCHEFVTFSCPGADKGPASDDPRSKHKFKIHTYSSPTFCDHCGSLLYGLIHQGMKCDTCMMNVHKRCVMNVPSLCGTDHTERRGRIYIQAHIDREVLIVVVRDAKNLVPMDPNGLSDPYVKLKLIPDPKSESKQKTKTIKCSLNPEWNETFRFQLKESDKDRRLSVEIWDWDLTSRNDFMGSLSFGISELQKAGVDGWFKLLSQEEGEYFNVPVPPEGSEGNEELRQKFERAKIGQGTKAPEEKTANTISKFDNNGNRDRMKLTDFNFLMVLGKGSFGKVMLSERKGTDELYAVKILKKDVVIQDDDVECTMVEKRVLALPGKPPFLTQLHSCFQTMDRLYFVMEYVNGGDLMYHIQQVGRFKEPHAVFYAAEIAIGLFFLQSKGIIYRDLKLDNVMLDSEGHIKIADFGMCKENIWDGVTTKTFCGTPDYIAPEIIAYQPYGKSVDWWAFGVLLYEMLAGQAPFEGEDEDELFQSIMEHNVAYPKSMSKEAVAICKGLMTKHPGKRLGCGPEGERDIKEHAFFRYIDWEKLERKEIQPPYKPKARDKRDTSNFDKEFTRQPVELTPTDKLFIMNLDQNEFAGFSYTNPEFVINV
Procedure: The apparent Kd values of these fluorescent probes were measured using different PKC isozymes (e.g., PKCβI, FIGS. 20A-20D). HEK293 cells were transfected to overexpress PKCβ-mVenus and treated with probes in the presence of verapamil (100 μM) as an inhibitor of efflux.

[1] = biological target: T2, native (untagged) murine PKCε (Mus musculus, UniProt P16054); assay: FPCBA saturation binding of probe 1, native PKCε (IRES-mVenus) in HEK293 cells
T2 sequence (P16054 1-737): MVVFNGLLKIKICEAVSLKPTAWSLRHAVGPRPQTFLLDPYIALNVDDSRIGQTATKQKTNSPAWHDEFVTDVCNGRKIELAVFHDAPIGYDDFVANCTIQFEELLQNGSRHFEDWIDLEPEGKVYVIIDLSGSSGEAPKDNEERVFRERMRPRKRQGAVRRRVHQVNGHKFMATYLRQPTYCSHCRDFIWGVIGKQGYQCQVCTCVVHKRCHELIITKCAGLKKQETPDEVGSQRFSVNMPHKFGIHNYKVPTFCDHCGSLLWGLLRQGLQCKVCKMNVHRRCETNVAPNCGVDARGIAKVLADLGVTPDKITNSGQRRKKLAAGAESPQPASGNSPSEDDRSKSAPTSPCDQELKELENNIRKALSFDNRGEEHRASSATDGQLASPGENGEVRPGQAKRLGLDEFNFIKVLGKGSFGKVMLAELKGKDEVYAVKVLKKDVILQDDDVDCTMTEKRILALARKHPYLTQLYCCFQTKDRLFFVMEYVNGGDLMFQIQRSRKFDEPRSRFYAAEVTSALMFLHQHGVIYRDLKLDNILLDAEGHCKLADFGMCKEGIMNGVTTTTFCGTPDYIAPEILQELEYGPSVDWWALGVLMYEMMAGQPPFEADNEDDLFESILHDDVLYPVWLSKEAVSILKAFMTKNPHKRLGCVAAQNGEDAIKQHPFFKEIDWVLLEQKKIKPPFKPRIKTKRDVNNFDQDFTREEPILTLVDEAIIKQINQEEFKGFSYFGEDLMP

murine PKCη-mVenus = murine PKCη-mVenus (Mus musculus, UniProt P23298); assay: FPCBA saturation binding of probe 1, HEK293 cells expressing PKCη-mVenus (Example 3)
Sequence of murine PKCη-mVenus (P23298 whole entry): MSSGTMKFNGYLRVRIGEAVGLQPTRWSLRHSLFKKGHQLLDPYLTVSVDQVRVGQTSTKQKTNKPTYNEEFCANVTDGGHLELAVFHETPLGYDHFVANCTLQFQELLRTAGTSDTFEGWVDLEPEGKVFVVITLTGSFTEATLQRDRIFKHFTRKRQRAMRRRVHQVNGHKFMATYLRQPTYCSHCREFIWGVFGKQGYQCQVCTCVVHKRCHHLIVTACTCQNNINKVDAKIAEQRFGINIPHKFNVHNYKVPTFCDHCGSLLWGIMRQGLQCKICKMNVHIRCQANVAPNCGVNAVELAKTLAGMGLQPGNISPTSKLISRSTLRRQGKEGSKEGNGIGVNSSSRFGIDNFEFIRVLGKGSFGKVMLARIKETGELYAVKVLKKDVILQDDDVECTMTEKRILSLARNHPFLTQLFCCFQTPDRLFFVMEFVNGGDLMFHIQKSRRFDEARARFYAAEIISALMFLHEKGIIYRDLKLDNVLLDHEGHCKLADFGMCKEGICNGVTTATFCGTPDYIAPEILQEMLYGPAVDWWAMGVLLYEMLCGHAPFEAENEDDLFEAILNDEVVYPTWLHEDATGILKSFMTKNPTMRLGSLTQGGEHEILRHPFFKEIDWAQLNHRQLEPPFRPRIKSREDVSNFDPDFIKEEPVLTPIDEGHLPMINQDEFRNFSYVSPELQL

[2] = biological target: T3, native (untagged) murine PKCδ (Mus musculus, UniProt P28867); assay: FPCBA competition with probe 1, native PKCδ in HEK293 cells; format: binding; details: read-out: Cellular Ki for native PKCδ (95% confidence interval); probe 1 400 nM, BIM1 2 μM, 2 h at 37° C.
T3 construct: For coexpression of full-length unmodified PKC proteins with mVenus as an independent marker; expressed in transfected cells; host or cells: HEK293 (transient, pIRES-mVenus)
T3 sequence (P28867 whole entry): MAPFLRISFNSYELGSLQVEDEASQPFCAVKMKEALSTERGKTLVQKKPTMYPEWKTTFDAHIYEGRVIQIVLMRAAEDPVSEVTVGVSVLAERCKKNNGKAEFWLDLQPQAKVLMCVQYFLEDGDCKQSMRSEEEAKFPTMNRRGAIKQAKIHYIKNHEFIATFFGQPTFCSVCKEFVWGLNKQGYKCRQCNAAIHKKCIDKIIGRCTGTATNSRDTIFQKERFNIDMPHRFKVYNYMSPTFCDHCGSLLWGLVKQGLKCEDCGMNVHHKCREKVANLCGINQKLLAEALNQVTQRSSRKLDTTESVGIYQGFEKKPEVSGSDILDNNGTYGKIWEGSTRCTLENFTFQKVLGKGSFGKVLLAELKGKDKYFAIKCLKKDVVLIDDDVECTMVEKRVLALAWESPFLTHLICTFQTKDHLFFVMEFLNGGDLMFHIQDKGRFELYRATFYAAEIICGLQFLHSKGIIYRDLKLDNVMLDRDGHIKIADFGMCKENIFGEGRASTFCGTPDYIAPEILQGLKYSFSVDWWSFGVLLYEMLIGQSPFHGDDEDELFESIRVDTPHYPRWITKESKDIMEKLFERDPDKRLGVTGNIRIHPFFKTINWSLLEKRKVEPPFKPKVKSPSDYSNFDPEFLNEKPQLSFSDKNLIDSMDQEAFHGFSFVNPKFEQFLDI

PKCβI = PKCβI (Homo sapiens, UniProt P05771); details: radiolabeled PDBu at 4° C.; read-out: Biochemical Ki, PKCβI; cited from earlier work
Sequence of PKCβI (P05771 whole entry): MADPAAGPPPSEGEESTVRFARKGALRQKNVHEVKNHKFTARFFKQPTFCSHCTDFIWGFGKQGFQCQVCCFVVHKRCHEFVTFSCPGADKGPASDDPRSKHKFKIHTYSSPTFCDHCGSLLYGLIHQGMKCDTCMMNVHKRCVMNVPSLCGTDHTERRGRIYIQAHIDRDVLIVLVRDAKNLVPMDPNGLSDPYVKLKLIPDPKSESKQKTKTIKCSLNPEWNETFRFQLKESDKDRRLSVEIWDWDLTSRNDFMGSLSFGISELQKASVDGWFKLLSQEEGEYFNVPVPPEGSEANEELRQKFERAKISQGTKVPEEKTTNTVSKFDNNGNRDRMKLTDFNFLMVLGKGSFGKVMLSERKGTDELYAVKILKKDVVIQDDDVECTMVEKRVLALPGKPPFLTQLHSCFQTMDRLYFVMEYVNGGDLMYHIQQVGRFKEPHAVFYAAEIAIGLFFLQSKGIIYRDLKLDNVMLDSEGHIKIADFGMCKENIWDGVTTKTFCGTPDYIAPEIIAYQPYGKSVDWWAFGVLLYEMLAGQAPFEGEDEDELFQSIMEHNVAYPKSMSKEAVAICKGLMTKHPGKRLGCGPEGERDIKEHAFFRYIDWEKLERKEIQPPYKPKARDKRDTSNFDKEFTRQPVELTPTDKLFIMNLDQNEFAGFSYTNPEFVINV

PKCη = PKCη (Homo sapiens, UniProt P24723); details: radiolabeled PDBu at 4° C.; read-out: Biochemical Ki, PKCη; cited from earlier work
Sequence of PKCη (P24723 whole entry): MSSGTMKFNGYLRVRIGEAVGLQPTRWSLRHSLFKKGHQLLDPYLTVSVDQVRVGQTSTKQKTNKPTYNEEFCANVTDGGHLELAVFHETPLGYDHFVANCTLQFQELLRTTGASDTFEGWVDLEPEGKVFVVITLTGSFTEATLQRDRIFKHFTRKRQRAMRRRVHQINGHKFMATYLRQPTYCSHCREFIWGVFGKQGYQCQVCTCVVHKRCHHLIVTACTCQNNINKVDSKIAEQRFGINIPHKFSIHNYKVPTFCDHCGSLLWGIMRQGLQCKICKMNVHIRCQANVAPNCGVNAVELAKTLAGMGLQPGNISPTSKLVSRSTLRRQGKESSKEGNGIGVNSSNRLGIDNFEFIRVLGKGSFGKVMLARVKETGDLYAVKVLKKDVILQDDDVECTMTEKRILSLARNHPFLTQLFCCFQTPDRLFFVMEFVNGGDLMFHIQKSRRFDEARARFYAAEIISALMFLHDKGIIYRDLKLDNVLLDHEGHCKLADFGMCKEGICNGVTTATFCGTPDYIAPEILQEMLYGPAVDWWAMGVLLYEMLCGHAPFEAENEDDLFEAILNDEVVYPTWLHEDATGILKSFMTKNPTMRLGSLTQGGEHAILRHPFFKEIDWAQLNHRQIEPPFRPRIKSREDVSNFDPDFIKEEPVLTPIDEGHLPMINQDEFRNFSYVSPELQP

PKCθ = PKCθ (Homo sapiens, UniProt Q04759); details: radiolabeled PDBu at 4° C.; read-out: Biochemical Ki, PKCθ; cited from earlier work
Sequence of PKCθ (Q04759 whole entry): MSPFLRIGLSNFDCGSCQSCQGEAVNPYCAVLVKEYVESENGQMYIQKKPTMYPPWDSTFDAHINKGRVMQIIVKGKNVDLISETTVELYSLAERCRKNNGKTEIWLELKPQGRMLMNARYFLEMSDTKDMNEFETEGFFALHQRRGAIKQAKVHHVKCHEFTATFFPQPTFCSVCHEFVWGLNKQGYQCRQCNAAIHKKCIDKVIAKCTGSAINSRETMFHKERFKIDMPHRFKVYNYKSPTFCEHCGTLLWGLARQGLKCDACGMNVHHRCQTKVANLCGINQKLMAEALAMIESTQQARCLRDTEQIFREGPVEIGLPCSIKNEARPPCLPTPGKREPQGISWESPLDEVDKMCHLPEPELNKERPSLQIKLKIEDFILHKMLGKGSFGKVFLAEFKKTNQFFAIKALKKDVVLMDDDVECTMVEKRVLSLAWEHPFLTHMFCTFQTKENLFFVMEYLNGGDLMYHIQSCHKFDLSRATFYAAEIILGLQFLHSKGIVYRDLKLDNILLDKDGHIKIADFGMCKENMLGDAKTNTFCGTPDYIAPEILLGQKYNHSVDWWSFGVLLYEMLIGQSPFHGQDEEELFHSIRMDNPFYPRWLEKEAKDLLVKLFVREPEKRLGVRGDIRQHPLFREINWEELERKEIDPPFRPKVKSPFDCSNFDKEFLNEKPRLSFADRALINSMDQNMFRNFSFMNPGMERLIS

[3] = biological target: native (untagged) murine PKCα (Mus musculus, UniProt P20444); assay: FPCBA competition with probe 1, native PKCα in HEK293 cells; format: binding; parameters: For coexpression of full-length unmodified PKC proteins with mVenus as an independent marker; expressed in transfected cells; host or cells: HEK293 (transient, pIRES-mVenus); details: read-out: Cellular Ki for native PKCα (95% confidence interval); probe 1 400 nM, BIM1 2 μM, 2 h at 37° C.

Question: With CCCCCCN(CCCCCCCCCCCCNC(=O)c1cc2cc(F)c(O)c(F)c2oc1=O)C(=O)O[C@@]12[C@H](O)[C@@H](C)[C@@]3(O)[C@@H](C=C(CO)C[C@]4(O)C(=O)C(C)=C[C@@H]34)[C@@H]1C2(C)C [probe 1, (1aR,1bS,4aR,7aS,7bS,8R,9R,9aS)-4a,7b,9-trihydroxy-3-(hydroxymethyl)-1,1,6,8-tetramethyl-5-oxo-1,1a,1b,4,4a,5,7a,7b,8,9-decahydro-9aH-cyclopropa[3,4]benzo[1,2-e]azulen-9a-yl (12-(6,8-difluoro-7-hydroxy-2-oxo-2H-chromene-3-carboxamido)dodecyl)(hexyl)carbamate] as the molecule, how does the “activity relative to 33” value (Jurkat cells) read?
Answer: > 20 fold

Question: And the IC50 (Jurkat cells; Homo sapiens, Jurkat, read-out: toxicity towards Jurkat cells, IC50)?
Answer: 500 nM

Question: And the Kd (mouse PKCβI-mVenus)?
Answer: 190 nM

Question: And the Kd [1]?
Answer: 568 ± 141 nM

Question: What about the Kd (murine PKCη-mVenus) of the same molecule?
Answer: 250 ± 36 nM

Question: Which results are given for CCC/C=C/C=C/C(=O)O[C@H]1/C(=C/C(=O)OC)C[C@H]2C[C@H]([C@@H](C)O)OC(=O)C[C@H](O)C[C@@H]3C[C@H](OC(C)=O)C(C)(C)[C@](O)(C[C@@H]4C/C(=C/C(=O)OC)C[C@H](/C=C/C(C)(C)[C@]1(O)O2)O4)O3 [bryostatin 1]?
Answer: Ki [2]: 20 nM; Ki (PKCβI): 2.2 nM; Ki (PKCη): 2.2 nM; Ki (PKCθ): 1.5 nM; Ki [3]: 3 nM
